{
  "source": "patent US9328163B2",
  "about": "“Post-translationally modified neurotrophin antibodies” (INSTITUT PASTEUR, priority 2006, dated 2016)",
  "key": {"motor neurons": {"system": "motor neurons", "test": "Purified motor neuron cultures, motor neuron survival by direct counting", "type": "cell-based, rat", "conditions": "for induction of motor neuron death: BSA 100 ng/mL, FGF-1 or FGF-2 10 ng/mL previously treated with peroxynitrite 1 mM", "protocol": "Media and sera were purchased from Gibco-Invitrogen. Motor neuron cultures were prepared from embryonic day 15 (E15) rat spinal cord by a combination of metrizamide gradient centrifugation and immunopanning with a monoclonal antibody directed against rat p 75^NTR (mouse mAb Ig192) as previously described. Motor neurons were plated at a density of 350 cells/cm^2 on 4 well multidishes (Nunclon) precoated with polyornithine-laminin. Cultures were maintained in Neurobasal™ medium supplemented with 2% horse serum, […] L-glutamate, 25 μM 2-mercaptoethanol, 0.5 mM L-glutamine, and 2% B-27 supplement (Gibco-Invitrogen). Motor neuron survival was maintained by the addition of GDNF (1 ng/mL; Sigma) to the culture media. Motor neuron death induced by trophic factor deprivation (NONE, without GDNF) was determined in all experiments as a control, and never was greater than 50%. Treatments with the different reagents were performed 3 hours after motor neuron plating. Motor neuron survival was assessed after 48 hours by direct counting of all cells displaying intact neurites longer than 4-cell bodies in diameter, in a prefixed area of the dish.\n(§1) Treatment with antisense oligonucleotides to down-regulate p75^NTR expression was performed as described previously. Briefly, HPLC-purified phosphorothioate antisense and missense oligonucleotides (5 μM; Integrated DNA Technologies) were added to the cell suspension of purified motor neurons and repeatedly pipetted before seeding. The oligonucleotides were present the whole time of culture. To determine the efficiency of uptake, cultures were incubated with p75^NTR antisense oligonucleotides with a 5′ 56-FAM fluorescent label. Cells were transferred to the heated stage (37° C.) of a Zeiss LSM510 confocal microscope with constant 5% CO2. Fluorescence was imaged with a 63× oil immersion objective. Uptake efficiency was >96% in all experiments. Sequences used were: p75^NTR antisense, 5′-ACCTGCCCTCCTCATTGCA-3′ (SEQ ID NO: 5) and p 75^NTR missense, 5′-CTCCCACTCGTCATTCGAC-3′ (SEQ ID NO: 6)."}, "NGF": {"system": "NGF", "test": "Tyrosine nitration and oligomerization of NGF by peroxynitrite (SDS-PAGE, Western blot anti-nitrotyrosine)", "type": "biochemical, mouse", "conditions": "urate 20 to 1000 μM; peroxynitrite 1 mM", "protocol": "Peroxynitrite concentration was determined spectrophotometrically at 302 nm (ε=1,670 M^−1 cm^−1). Diluted stock solutions were freshly prepared in 0.01 M NaOH. The reactions of NGF (Harlan; Indianapolis, USA) with different concentrations of peroxynitrite (0.25 mM to 2 mM) was performed at a protein concentration of 0.2 mg/mL to 1.0 mg/mL obtaining similar results. The reaction was performed in 50 mM sodium phosphate buffer, pH 7.4, containing 20 mM sodium bicarbonate. NGF was subjected to 10 bolus addition of peroxynitrite (1 μL each) to reach the desired final concentration of peroxynitrite. One bolus of peroxynitrite stock solution was rapidly added on the top of the test tube and mixed by vortexing for 3 sec. The procedure was repeated 10 times. To exclude a potential non-specific effect of peroxynitrite treatment because of pH changes or contaminants, control experiments were performed using diluted NaOH or decomposed peroxynitrite (reverse order addition, ROA). Treatment of bovine serum albumin (Sigma), FGF-1 (Sigma) and FGF-2 (R&D Systems) with peroxynitrite was performed as described above at a concentration of 0.2 mg/mL.\nSDS-PAGE was performed in 15% polyacrylamide minigels under reducing conditions. Samples were boiled for 5 min in LaemLi buffer before running. Proteins were visualized by Coomassie Blue or Silver staining. […]"}, "purified motor neurons": {"system": "purified motor neurons", "test": "Uptake of fluorescently labelled antisense oligonucleotides (confocal microscopy)", "type": "cell-based, rat", "conditions": "antisense oligonucleotides with 5′ 56-FAM fluorescent label; all experiments", "protocol": "as §1"}, "[1]": {"system": "Dorsal root ganglia explants", "test": "Neurite outgrowth from dorsal root ganglia explants (GAP-43 immunofluorescence)", "type": "cell-based", "conditions": "100 ng/mL; 24 hours; E15 rat embryo ganglia", "protocol": "Dorsal root ganglia explants from E15 rat embryos (that express both TrkA and p75^NTR) were cultured in Neurobasal media in the absence of trophic factors (NONE) or in the presence of NGF (100 ng/mL), NGF treated with peroxynitrite (100 ng/mL; nitroNGF-P) or NGF treated with tetranitromethane (nitroNGF-TNM). After 24 hours cultures were fixed with 4% paraformaldehyde and processed for immunofluorescence against GAP-43."}, "[2]": {"conditions": "cultures maintained with GDNF (1 ng/mL), no exogenous nitric oxide, 48 h"}},
  "data": [
    {"molecule": "COC(=O)CC[C@H](NC(=O)[C@H](CC(=O)OC)NC(=O)OCc1ccccc1)C(=O)N[C@H](C(=O)N[C@@H](CC(=O)OC)C(=O)CF)C(C)C", "note": "[DEVD-fmk]", "values": [
      {"measurement": "effect on motor neuron loss induced by peroxynitrite-treated NGF", "setting": "motor neurons; DEVD-fmk 10 μM added every 24 hours, NGF-ONOO^− 100 ng/mL, 48 h", "value": "blocked"}
    ]},
    {"molecule": "COC(=O)[C@@H](N)CCCNC(=N)N[N+](=O)[O-]", "note": "[L-NAME]", "values": [
      {"measurement": "effect on motor neuron loss induced by peroxynitrite-treated NGF", "setting": "motor neurons; L-NAME 1 mM, NGF-ONOO^− 100 ng/mL, 48 h", "value": "prevented"}
    ]},
    {"molecule": "O=C(O)c1ccc(/C2=C3\\C=CC(=N3)/C(c3ccc(C(=O)O)cc3)=c3/cc/c4[n]3[Mn]([Cl])[n]3c2ccc3/C(c2ccc(C(=O)O)cc2)=C2/C=CC(=N2)\\C=4c2ccc(C(=O)O)cc2)cc1", "note": "[MnTBAP]", "values": [
      {"measurement": "effect on motor neuron loss induced by peroxynitrite-treated NGF", "setting": "motor neurons; MnTBAP 100 μM, NGF-ONOO^− 100 ng/mL, 48 h", "value": "prevented"}
    ]},
    {"molecule": "Oc1nc(O)c2nc(O)[nH]c2n1", "note": "[urate]", "values": [
      {"measurement": "effect on motor neuron loss induced by peroxynitrite-treated NGF", "setting": "motor neurons; urate 100 nM added to culture, NGF-ONOO^− 100 ng/mL, 48 h", "value": "did not prevent motor neuron loss"},
      {"measurement": "effect on apoptotic activity of peroxynitrite-treated NGF", "setting": "motor neurons; urate 200 μM present during peroxynitrite (1 mM) treatment of NGF, NGF 100 ng/mL, 48 h", "value": "abolished the apoptotic effect"},
      {"measurement": "effect on tyrosine nitration and oligomerization of NGF", "setting": "NGF", "value": "prevented tyrosine nitration and oligomerization of NGF in a dose dependent manner"}
    ]},
    {"molecule": "antisense: phosphorothioate p75^NTR antisense, 5′-ACCTGCCCTCCTCATTGCA-3′ (SEQ ID NO: 5) (DNA, all phosphorothioate, methylation of C not given here; further chemistry not fully specified)", "values": [
      {"measurement": "effect on motor neuron apoptosis induced by native NGF in the presence of nitric oxide", "setting": "motor neurons; oligonucleotides 5 μM, NGF 100 ng/mL plus DETA-NONOate 10 μM, 48 h", "value": "blocked"},
      {"measurement": "effect on apoptosis induced by peroxynitrite-treated NGF", "setting": "motor neurons; oligonucleotides 5 μM, NGF-ONOO^− 100 ng/mL, 48 h", "value": "completely prevented"},
      {"measurement": "effect on loss of motor neurons induced by NGF-ONOO^− or NGF+NO", "setting": "motor neurons; oligonucleotides added at plating, NGF-ONOO^− 100 ng/mL or NGF 100 ng/mL plus DETA-NONOate 10 μM, 48 h", "value": "completely blocked the loss of motor neurons"},
      {"measurement": "uptake efficiency", "setting": "purified motor neurons", "value": "> 96", "unit": "%"}
    ]},
    {"molecule": "peroxynitrite treated-BSA: bovine serum albumin (Sigma) treated with peroxynitrite", "values": [
      {"measurement": "induction of motor neuron death", "setting": "motor neurons; 48 h", "value": "did not induce motor neuron death"}
    ]},
    {"molecule": "peroxynitrite treated-FGF-1: FGF-1 (Sigma) treated with peroxynitrite", "values": [
      {"measurement": "induction of motor neuron death", "setting": "motor neurons; 48 h", "value": "did not induce motor neuron death"},
      {"measurement": "induction of motor neuron death", "setting": "motor neurons; 48 h, listed as nitro-FGF-1", "value": "do not exert any apoptotic effect"}
    ]},
    {"molecule": "peroxynitrite treated-FGF-2: FGF-2 (R&D Systems) treated with peroxynitrite", "values": [
      {"measurement": "induction of motor neuron death", "setting": "motor neurons; 48 h", "value": "did not induce motor neuron death"},
      {"measurement": "induction of motor neuron death", "setting": "motor neurons; 48 h, listed as nitro-FGF-2", "value": "do not exert any apoptotic effect"}
    ]},
    {"molecule": "peroxynitrite-treated NGF: NGF (Harlan) treated with peroxynitrite; nitrated (Tyr52, Trp99), elutes as dimer, tetramer and octamer", "values": [
      {"measurement": "peroxynitrite concentration at which NGF apoptotic activity reaches a plateau", "setting": "motor neurons; NGF 10 ng/mL previously treated with indicated peroxynitrite concentrations, 48 h", "value": "higher than 0.5 mM"},
      {"measurement": "motor neuron loss", "setting": "motor neurons; at 1 pg/mL in the presence of nitric oxide (DETA-NONOate 10 μM), 48 h", "value": 33, "unit": "%"},
      {"measurement": "concentration inducing motor neuron death (as low as)", "setting": "motor neurons; cultures maintained with GDNF (1 ng/mL), no exogenous nitric oxide, survival 48 h after treatment", "value": 1, "unit": "ng/mL"},
      {"measurement": "increase of potency to induce apoptosis of motor neurons", "setting": "motor neurons; in the presence of nitric oxide, versus NGF", "value": "10,000 fold"},
      {"measurement": "apoptotic activity relative to unmodified native NGF", "setting": "motor neurons; through p75^NTR", "value": "10,000 fold"},
      {"measurement": "concentration significantly inducing motor neuron loss", "setting": "motor neurons; together with nitric oxide (NGF-ONOO^−+NO)", "value": 1, "unit": "pg/mL"},
      {"measurement": "neurite growth compared to NGF", "setting": "[1]", "value": "increased neurite growth"}
    ]},
    {"molecule": "NGF-ROA: control NGF treated with decomposed peroxynitrite (reverse order addition) (protein, UniProt P01139 122-241, looked up, Beta-nerve growth factor treated with decomposed peroxynitrite) Beta-nerve growth factor: SSTHPVFHMGEFSVCDSVSVWVGDKTTATDIKGKEVTVLAEVNINNSVFRQYFFETKCRASNPVESGCRGIDSKHWNSYCTTTHTFVKALTTDEKQAAWRFIRIDTACVCVLSRKATRRG", "values": [
      {"measurement": "effect on motor neuron survival", "setting": "motor neurons; [2]", "value": "did not affect motor neuron survival"},
      {"measurement": "concentration significantly inducing motor neuron loss", "setting": "motor neurons; in the presence of nitric oxide <50 nM from DETA-NONOate (10 μM), 48 h", "value": "higher than 10 ng/mL"}
    ]},
    {"molecule": "TNM-treated NGF: NGF (Harlan) treated with 40-fold molar excess of tetranitromethane; nitrated at Tyr52 and Tyr79 (protein) SSTHPVFHMGEFSVCDSVSVWVGDKTTATDIKGKEVTVLAEVNINNSVFRQYFFETKCRASNPVESGCRGIDSKHWNSYCTTTHTFVKALTTDEKQAAWRFIRIDTACVCVLSRKATR", "values": [
      {"measurement": "motor neuron loss", "setting": "motor neurons; in the absence of nitric oxide, 48 h", "value": 32, "unit": "%"},
      {"measurement": "neurite growth compared to NGF", "setting": "[1]", "value": "increased neurite growth"}
    ]},
    {"molecule": "NGF: nerve growth factor, commercially available murine NGF (Harlan), non-nitrated (protein, listed as Mus musculus) SSTHPVFHMGEFSVCDSVSVWVGDKTTATDIKGKEVTVLAEVNINNSVFRQYFFETKCRASNPVESGCRGIDSKHWNSYCTTTHTFVKALTTDEKQAAWRFIRIDTACVCVLSRKATR", "values": [
      {"measurement": "effect on motor neuron survival", "setting": "motor neurons; [2]", "value": "not sensitive"}
    ]}
  ]
}
